From ChEMBL document CHEMBL1127581, “Evolution of a novel series of [(N,N-dimethylamino)propyl]- and piperazinylbenzanilides as the first selective 5-HT1D antagonists” (J Med Chem, 1994)

Experiments:
Canis familiaris = species on record: Canis familiaris; test: Tested in vitro for its ability to block 5-HT induced contractile responses in dog isolated saphenous vein; assay type: functional, Canis lupus familiaris
Oryctolagus cuniculus [1] = species on record: Oryctolagus cuniculus; test: Tested in vitro for its ability to block 5-HT2A induced contraction of rabbit isolated aorta; assay type: functional
[2] = target: T1, 5-hydroxytryptamine receptor 1A (Rattus norvegicus, UniProt P19327); test: Binding affinity towards 5-hydroxytryptamine 1A receptor in rat hippocampus using [3H]8-OH-DPAT; assay type: tissue-based
T1 sequence (P19327 whole entry): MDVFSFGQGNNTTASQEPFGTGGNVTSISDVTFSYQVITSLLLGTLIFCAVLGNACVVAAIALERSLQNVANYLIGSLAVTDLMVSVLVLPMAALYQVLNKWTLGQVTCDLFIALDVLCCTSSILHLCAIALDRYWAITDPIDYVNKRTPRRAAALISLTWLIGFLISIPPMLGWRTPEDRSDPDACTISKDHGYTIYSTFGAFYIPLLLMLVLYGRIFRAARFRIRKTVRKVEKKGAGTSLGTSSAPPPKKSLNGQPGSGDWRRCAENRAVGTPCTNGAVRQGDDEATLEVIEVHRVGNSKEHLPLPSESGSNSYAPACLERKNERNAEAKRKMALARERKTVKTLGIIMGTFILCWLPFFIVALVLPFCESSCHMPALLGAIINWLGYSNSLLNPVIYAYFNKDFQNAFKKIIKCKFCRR

[3] = target: 5-hydroxytryptamine receptor 1B (Rattus norvegicus, UniProt P28564); test: In vitro binding affinity towards 5-hydroxytryptamine 1B receptor in rat striatal membrane with [125I]- iodocyanopindolol; assay type: cell membranes, Striatum
[4] = target: 5-hydroxytryptamine receptor 1D (Cavia porcellus, UniProt Q60484); test: In vitro binding affinity towards 5-hydroxytryptamine 1D receptor in guinea-pig striatum in presence of BMY-7378 and mesulergine; assay type: tissue-based
[5] = target: 5-hydroxytryptamine receptor 1D (Cavia porcellus) (UniProt Q60484); test: Oral effective dose against hypothermia in the guinea pig caused by stimulation of central 5-hydroxytryptamine 1D receptors by the agonist GR-46611;range is 0.2-1.2; assay type: functional
[6] = target: 5-hydroxytryptamine receptor 1D (Cavia porcellus) (UniProt Q60484); test: Compound at 45 mg/kg was tested for the inhibition of hypothermia in the guinea pig caused by stimulation of central 5-hydroxytryptamine 1D receptors by the agonist GR-46611; assay type: functional, organism-based; set-up: dose 45 mg/kg
[7] = target: 5-hydroxytryptamine receptor 1D (Cavia porcellus) (UniProt Q60484); test: Compound at 3 mg/kg was tested for the inhibition of hypothermia in the guinea pig caused by stimulation of central 5-hydroxytryptamine 1D receptors by the agonist GR-46611; assay type: functional, organism-based; set-up: dose 3 mg/kg
Oryctolagus cuniculus [8] = species on record: Oryctolagus cuniculus; test: Tested for its ability to block 5-HT2A induced contractile responses in rabbit isolated aorta; assay type: functional
[9] = target: 5-hydroxytryptamine receptor 1D (Cavia porcellus) (UniProt Q60484); test: Oral effective dose against hypothermia in the guinea pig caused by stimulation of central 5-hydroxytryptamine 1D receptors by the agonist GR-46611; assay type: functional
[10] = target: 5-hydroxytryptamine receptor 1D (Cavia porcellus) (UniProt Q60484); test: Oral effective dose against hypothermia in the guinea pig caused by stimulation of central 5-hydroxytryptamine 1D receptor by the agonist GR-46611; assay type: functional
[11] = target: 5-hydroxytryptamine receptor 1D (Cavia porcellus) (UniProt Q60484); test: Oral effective dose against hypothermia in the guinea pig caused by stimulation of central 5-hydroxytryptamine 1D receptors by the agonist GR-46611; range is 2-9; assay type: functional
[12] = target: T1, 5-hydroxytryptamine receptor 1A; test: Binding affinity towards 5-hydroxytryptamine 1A receptor in rat hippocampus with [3H]8-OH-DPAT; assay type: tissue-based
[13] = target: 5-hydroxytryptamine receptor 1D (Cavia porcellus) (UniProt Q60484); test: Compound at oral dose of 45 mg/kg was tested for percent inhibition against 5-hydroxytryptamine 1D receptor causes hypothermia in guinea pig; assay type: functional, organism-based; set-up: dose 45 mg/kg
[14] = target: 5-hydroxytryptamine receptor 1D (Cavia porcellus) (UniProt Q60484); test: Compound at 50 mg/kg was tested for the inhibition of hypothermia in the guinea pig caused by stimulation of central 5-hydroxytryptamine 1D receptors by the agonist GR-46611; assay type: functional, organism-based; set-up: dose 50 mg/kg

Chain of 5-hydroxytryptamine receptor 1D (Q60484 whole entry): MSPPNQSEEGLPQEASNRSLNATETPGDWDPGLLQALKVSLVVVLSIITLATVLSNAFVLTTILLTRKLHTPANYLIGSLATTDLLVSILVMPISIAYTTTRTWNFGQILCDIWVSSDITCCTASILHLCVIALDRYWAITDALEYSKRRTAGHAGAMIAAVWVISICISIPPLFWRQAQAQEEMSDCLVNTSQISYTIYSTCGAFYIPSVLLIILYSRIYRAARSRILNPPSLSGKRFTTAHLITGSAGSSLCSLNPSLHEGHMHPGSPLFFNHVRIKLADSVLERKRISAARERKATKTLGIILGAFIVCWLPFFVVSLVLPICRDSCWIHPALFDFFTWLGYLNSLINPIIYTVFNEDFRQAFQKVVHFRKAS
Chain of 5-hydroxytryptamine receptor 1D (Cavia porcellus) (Q60484 whole entry): as above
Chain of 5-hydroxytryptamine receptor 1B (P28564 whole entry): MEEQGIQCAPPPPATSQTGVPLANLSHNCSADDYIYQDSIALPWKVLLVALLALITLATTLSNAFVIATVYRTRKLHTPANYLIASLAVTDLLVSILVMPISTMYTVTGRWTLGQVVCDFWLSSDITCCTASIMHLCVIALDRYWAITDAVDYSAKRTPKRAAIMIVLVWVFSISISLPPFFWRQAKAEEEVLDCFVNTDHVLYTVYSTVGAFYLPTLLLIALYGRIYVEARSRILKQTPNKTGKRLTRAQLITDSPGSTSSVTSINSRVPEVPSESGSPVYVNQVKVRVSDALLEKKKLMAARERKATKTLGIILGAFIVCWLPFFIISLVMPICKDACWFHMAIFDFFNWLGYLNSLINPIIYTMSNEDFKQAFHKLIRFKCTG

Structure (SMILES)	pKB (Canis familiaris)	pKB (Oryctolagus cuniculus [1])	Ki [2] [nM]	Ki [4] [nM]	pKB (Oryctolagus cuniculus [8])	ED50 [9] [mg/kg]	other results
COc1ccc(C(=O)Nc2ccc(-c3ccc(-c4noc(C)n4)cc3C)cc2)cc1N1CCN(C)CC1	8.2	7.8	1260	6.31			Ki [3]: 6.31 nM; ED50 [5]: 0.5 mg/kg
COCCOC(=O)c1ccc(-c2ccc(NC(=O)c3ccc(OC)c(CCCN(C)C)c3)cc2)c(C)c1	8.4			3.16	6.2	45	inhibition [6]: 55%; inhibition [7]: 66%
COc1ccc(C(=O)Nc2ccc(-c3ccc(C(=O)O)cc3C)cc2)cc1CCCN(C)C	8.7		> 10000	31.6	5.7		
CCOc1ccc(NC(=O)c2ccc(OC)c(CCCN(C)C)c2)cc1	6.9				6.2		
COc1ccc(C(=O)Nc2ccc(-c3ccncc3)cc2)cc1N1CCN(C)CC1	7.9	6.5		3.16		> 45	
COc1ccc(NC(=O)c2ccc(-c3ccc(C(=O)N(C)C)cc3C)cc2)cc1N1CCN(C)CC1	9.2	4.9	251	5.01			Ki [3]: 6.31 nM; ED50 [10]: 0.67 mg/kg
COc1ccc(NC(=O)c2ccc(-c3ccncc3)cc2)cc1N1CCN(C)CC1	8	6.5		5.01			ED50 [11]: 5 mg/kg; Ki [12]: 1260 nM
COc1ccc(C(=O)Nc2ccc(-c3ccc(CO)cc3C)cc2)cc1CCCN(C)C	8.5				5.9	45	inhibition [6]: 52%
COc1ccc(C(=O)Nc2ccc(-c3ccc(C=O)cc3C)cc2)cc1CCCN(C)C	8.4		5010	6.31	6.3	45	inhibition [13]: < 30%
COc1ccc(C(=O)Nc2ccc(-c3ccncc3)cc2)cc1CCCN(C)C	7.8		20000	10	6.3		inhibition [14]: < 30%
